Test results reported in US7589104B2, “Tricyclic-bridged piperidinyline derivatives as §-opioid modulators” (Janssen Pharmaceutica NV, priority 2004, dated 2009).
Read-outs that look alike come from different tables or passages of the source.

Key:
delta opioid receptor = target: T1, delta opioid receptor (Rattus norvegicus, UniProt P33533); experiment: Rat Brain Delta Opioid Receptor Binding Assay
T1 construct: from tissue; host or cells: forebrain of male Wistar rats (Charles River)

mu opioid receptor = target: T2, mu opioid receptor (Rattus norvegicus, UniProt P33535); experiment: Rat Brain Mu Opioid Receptor Binding Assay
T2 construct: Following incubation with the mu selective peptide ligand, ˜0.8 nM [^3H]DAMGO; from tissue; host or cells: forebrain of male Wistar rats (Charles River)
T2 sequence (P33535 whole entry): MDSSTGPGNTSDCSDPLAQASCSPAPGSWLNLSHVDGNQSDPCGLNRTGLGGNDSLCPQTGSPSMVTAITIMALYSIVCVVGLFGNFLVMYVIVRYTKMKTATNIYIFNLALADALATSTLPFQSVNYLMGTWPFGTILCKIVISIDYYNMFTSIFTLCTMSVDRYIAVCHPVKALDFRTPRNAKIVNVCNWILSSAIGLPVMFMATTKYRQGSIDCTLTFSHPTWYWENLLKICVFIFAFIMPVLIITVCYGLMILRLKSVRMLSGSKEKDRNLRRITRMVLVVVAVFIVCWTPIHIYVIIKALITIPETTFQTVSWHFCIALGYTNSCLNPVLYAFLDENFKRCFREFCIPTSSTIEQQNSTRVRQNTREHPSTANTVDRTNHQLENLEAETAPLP

[1] = rat forebrain membranes, [3H]DAMGO, read-out: mu (Ki)
[2] = rat forebrain membranes, [3H]DPDPE or [3H]naltrindole, read-out: delta (Ki)

T1 sequence (P33533 whole entry): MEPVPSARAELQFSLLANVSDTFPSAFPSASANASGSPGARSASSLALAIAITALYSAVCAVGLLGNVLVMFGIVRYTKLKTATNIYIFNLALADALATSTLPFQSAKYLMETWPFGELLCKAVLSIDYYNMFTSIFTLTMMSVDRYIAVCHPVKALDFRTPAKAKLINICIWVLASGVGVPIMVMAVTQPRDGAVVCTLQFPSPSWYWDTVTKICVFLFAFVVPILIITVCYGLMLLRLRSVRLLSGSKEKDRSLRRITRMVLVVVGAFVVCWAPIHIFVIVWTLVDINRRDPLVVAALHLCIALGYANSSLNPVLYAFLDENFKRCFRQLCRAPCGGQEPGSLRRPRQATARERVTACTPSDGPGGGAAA

Row | SMILES | Ki (delta opioid receptor) [nM] | Ki (mu opioid receptor) [nM] | Ki (mu opioid receptor; [1]) [nM] | Ki (delta opioid receptor; [2]) [nM]
1 | c1ccc(CN2C3CCC2CC(C2c4ccccc4Oc4cc(-c5ccncc5)ccc42)C3)nc1 (stereo not drawn) [Compound 22b, 8-Pyridin-2-ylmethyl-3-(3-pyridin-4-yl-9H-xanthen-9-yl)-8-aza-bicyclo[3.2.1]octane] | 71.6 | 305 | – | –
2 | CC(=O)Nc1ccccc1-c1ccc2c(c1)Oc1ccccc1C2C1CC2CCC(C1)N2CCc1ccccc1 (stereo not drawn) [Compound 17b, N-{2-[9-(8-Phenethyl-8-aza-bicyclo[3.2.1]oct-3-yl)-9H-xanthen-3-yl]-phenyl}-acetamide] | 64.8 | – | 116 | –
3 | CCN(CC)C(=O)c1ccc2c(c1)Oc1ccccc1C2C1CC2CCC(C1)N2 (stereo not drawn) [Compound 9a, 9-(8-Aza-bicyclo[3.2.1]oct-3-yl)-9H-xanthene-3-carboxylic acid diethylamide] | 140 | 6450 | – | –
4 | c1ccc(CN2C3CCC2CC(C2c4ccccc4Oc4cc(-c5ccncc5)ccc42)C3)cc1 (stereo not drawn) [Compound 23b, 8-Benzyl-3-(3-pyridin-4-yl-9H-xanthen-9-yl)-8-aza-bicyclo[3.2.1]octane] | 99.7 | 890 | – | –
5 | c1ccc2c(c1)Oc1cc(-c3ccncc3)ccc1C2C1CC2CCC(C1)N2Cc1ccoc1 (stereo not drawn) [Compound 25b, 8-Furan-3-ylmethyl-3-(3-pyridin-4-yl-9H-xanthen-9-yl)-8-aza-bicyclo[3.2.1]octane] | 22.4 | 775 | – | –
6 | c1cncc(-c2ccc3c(c2)Oc2ccccc2C3C2CC3CCC(C2)N3Cc2cccs2)c1 (stereo not drawn) [Compound 9b, 3-(3-Pyridin-3-yl-9H-xanthen-9-yl)-8-thiophen-2-ylmethyl-8-aza-bicyclo[3.2.1]octane] | 182 | 1610 | – | –
7 | c1cncc(-c2ccc3c(c2)Oc2ccccc2C3C2CC3CCC(C2)N3)c1 (stereo not drawn) [Compound 3b, 3-(3-Pyridin-3-yl-9H-xanthen-9-yl)-8-aza-bicyclo[3.2.1]octane] | 3150 | 4440 | – | –
8 | COc1cccc2c1Oc1cc(Br)ccc1C2C1CC2CCC(C1)N2 (stereo not drawn) [Compound 14k, 3-(3-Bromo-5-methoxy-9H-xanthen-9-yl)-8-aza-bicyclo[3.2.1]octane] | 2880 | 7380 | – | –
9 | c1ccc2c(c1)Oc1cc(-c3ccncc3)ccc1C2C1CC2CCC(C1)N2 (stereo not drawn) [Compound 20b, 3-(3-Pyridin-4-yl-9H-xanthen-9-yl)-8-aza-bicyclo[3.2.1]octane] | 194 | 3490 | – | –
10 | CC(=O)Nc1ccccc1-c1ccc2c(c1)Oc1ccccc1C2C1CC2CCC(C1)N2 (stereo not drawn) [Compound 7b, N-{2-[9-(8-Aza-bicyclo[3.2.1]oct-3-yl)-9H-xanthen-3-yl]-phenyl}-acetamide] | 426 | 6380 | – | –
11 | CCN(CC)C(=O)c1ccc2c(c1)Oc1ccccc1C2C1CC2CCC(C1)N2Cc1ccco1 (stereo not drawn) [Compound 13a, 9-(8-Furan-2-ylmethyl-8-aza-bicyclo[3.2.1]oct-3-yl)-9H-xanthene-3-carboxylic acid diethylamide] | 42 | 3020 | – | –
12 | CCN(CC)C(=O)c1ccc2c(c1)Oc1c(Cl)cccc1C2C1CC2CCC(C1)N2 (stereo not drawn) [Compound 6i, 9-(8-Aza-bicyclo[3.2.1]oct-3-yl)-5-chloro-9H-xanthene-3-carboxylic acid diethylamide] | 3350 | > 10000 | – | –
13 | O=C(c1ccc2c(c1)Oc1ccccc1C2C1CC2CCC(C1)N2)N1CCCC1 (stereo not drawn) [Compound 3g, [9-(8-Aza-bicyclo[3.2.1]oct-3-yl)-9H-xanthen-3-yl]-pyrrolidin-1-yl-methanone] | 831 | 7600 | – | –
14 | CC(=O)Nc1ccccc1-c1ccc2c(c1)Oc1c(O)cccc1C2C1CC2CCC(C1)N2 (stereo not drawn) [Compound 3l, N-{2-[9-(8-Aza-bicyclo[3.2.1]oct-3-yl)-5-hydroxy-9H-xanthen-3-yl]-phenyl}-acetamide] | 1.55 | 20.4 | – | –
15 | Oc1cccc2c1Oc1cc(-c3cccnc3)ccc1C2C1CC2CCC(C1)N2 (stereo not drawn) [Compound 8k, 9-(8-Aza-bicyclo[3.2.1]oct-3-yl)-6-pyridin-3-yl-9H-xanthen-4-ol] | 9.61 | 27.2 | – | –
16 | CCN(CC)C(=O)c1ccc2c(c1)Oc1ccccc1C2C1CC2CCC(C1)N2C (stereo not drawn) [Compound 17a, 9-(8-Methyl-8-aza-bicyclo[3.2.1]oct-3-yl)-9H-xanthene-3-carboxylic acid diethylamide] | > 10000 | > 10000 | – | –
17 | c1ccc2c(c1)Oc1cc(-c3ccoc3)ccc1C2C1CC2CCC(C1)N2 (stereo not drawn) [Compound 5b, 3-(3-Furan-3-yl-9H-xanthen-9-yl)-8-aza-bicyclo[3.2.1]octane] | 3450 | 19700 | – | –
18 | c1ccc2c(c1)Oc1cc(-c3ccsc3)ccc1C2C1CC2CCC(C1)N2 (stereo not drawn) [Compound 6b, 3-(3-Thiophen-3-yl-9H-xanthen-9-yl)-8-aza-bicyclo[3.2.1]octane] | 5800 | 83200 | – | –

Row | SMILES | Ki (delta opioid receptor) [nM] | Ki (mu opioid receptor) [nM] | Ki (mu opioid receptor; [1]) [nM] | Ki (delta opioid receptor; [2]) [nM]
19 | CCN(CC)C(=O)c1ccc2c(c1)Oc1ccccc1C2C1CC2CCC(C1)N2CCc1ccccc1 (stereo not drawn) [Compound 12a, 9-(8-Phenethyl-8-aza-bicyclo[3.2.1]oct-3-yl)-9H-xanthene-3-carboxylic acid diethylamide] | 200 | 667 | – | –
20 | c1ccc(CN2C3CCC2CC(C2c4ccccc4Oc4cc(-c5cccnc5)ccc42)C3)cc1 (stereo not drawn) [Compound 11b, 8-Benzyl-3-(3-pyridin-3-yl-9H-xanthen-9-yl)-8-aza-bicyclo[3.2.1]octane] | 70.4 | 955 | – | –
21 | CCN(CC)C(=O)c1ccc2c(c1)Oc1c(-c3ccccc3)cccc1C2C1CC2CCC(C1)N2 (stereo not drawn) [Compound 7d, 9-(8-Aza-bicyclo[3.2.1]oct-3-yl)-5-phenyl-9H-xanthene-3-carboxylic acid diethylamide] | 91 | – | 8200 | –
22 | c1ccc(CN2C3CCC2CC(C2c4ccccc4Oc4cc(-c5cccnc5)ccc42)C3)nc1 (stereo not drawn) [Compound 10b, 8-Pyridin-2-ylmethyl-3-(3-pyridin-3-yl-9H-xanthen-9-yl)-8-aza-bicyclo[3.2.1]octane] | 211 | 350 | – | –
23 | CC(=O)Nc1ccccc1-c1ccc2c(c1)Oc1ccccc1C2C1CC2CCC(C1)N2Cc1cccs1 (stereo not drawn) [Compound 14b, N-{2-[9-(8-Thiophen-2-ylmethyl-8-aza-bicyclo[3.2.1]oct-3-yl)-9H-xanthen-3-yl]-phenyl}-acetamide] | 78.1 | 2150 | – | –
24 | c1ccc2c(c1)Oc1cc(-c3cnc4ccccc4c3)ccc1C2C1CC2CCC(C1)N2 (stereo not drawn) [Compound 8b, 3-[9-(8-Aza-bicyclo[3.2.1]oct-3-yl)-9H-xanthen-3-yl]-quinoline] | 4860 | 27700 | – | –
25 | COc1cccc2c1Oc1cc(-c3ccccc3NC(C)=O)ccc1C2C1CC2CCC(C1)N2 (stereo not drawn) [Compound 2l, N-{2-[9-(8-Aza-bicyclo[3.2.1]oct-3-yl)-5-methoxy-9H-xanthen-3-yl]-phenyl}-acetamide] | – | – | 3700 | 180
26 | CC(=O)Nc1ccccc1-c1ccc2c(c1)Oc1ccccc1C2C1CC2CCC(C1)N2Cc1ccccn1 (stereo not drawn) [Compound 15b, N-{2-[9-(8-Pyridin-2-ylmethyl-8-aza-bicyclo[3.2.1]oct-3-yl)-9H-xanthen-3-yl]-phenyl}-acetamide] | 102 | 947 | – | –
27 | c1cncc(-c2ccc3c(c2)Oc2ccccc2C3C2CC3CCC(C2)N3Cc2ccoc2)c1 (stereo not drawn) [Compound 4b, 8-Furan-3-ylmethyl-3-(3-pyridin-3-yl-9H-xanthen-9-yl)-8-aza-bicyclo[3.2.1]-octane] | 29.2 | 556 | – | –
28 | CC(=O)Nc1ccccc1-c1ccc2c(c1)Oc1ccccc1C2C1CC2CCC(C1)N2Cc1ccoc1 (stereo not drawn) [Compound 13b, N-{2-[9-(8-Furan-3-ylmethyl-8-aza-bicyclo[3.2.1]oct-3-yl)-9H-xanthen-3-yl]-phenyl}-acetamide] | 38.7 | 1490 | – | –
29 | COc1cccc2c1Oc1cc(-c3cccnc3)ccc1C2C1CC2CCC(C1)N2 (stereo not drawn) [Compound 7k, 3-(5-Methoxy-3-pyridin-3-yl-9H-xanthen-9-yl)-8-aza-bicyclo[3.2.1]octane] | – | – | 7740 | 655
30 | CCN(CC)C(=O)c1ccc2c(c1)Oc1ccc(F)cc1C2C1CC2CCC(C1)N2 (stereo not drawn) [Compound 7e, 9-(8-Aza-bicyclo[3.2.1]oct-3-yl)-7-fluoro-9H-xanthene-3-carboxylic acid diethylamide] | 294 | 44000 | – | –
31 | c1ccc(CCN2C3CCC2CC(C2c4ccccc4Oc4cc(-c5ccncc5)ccc42)C3)cc1 (stereo not drawn) [Compound 24b, 8-Phenethyl-3-(3-pyridin-4-yl-9H-xanthen-9-yl)-8-aza-bicyclo[3.2.1]octane] | 1590 | 196 | – | –
32 | c1ccc(CCN2C3CCC2CC(C2c4ccccc4Oc4cc(-c5cccnc5)ccc42)C3)cc1 (stereo not drawn) [Compound 12b, 8-Phenethyl-3-(3-pyridin-3-yl-9H-xanthen-9-yl)-8-aza-bicyclo[3.2.1]octane] | 794 | 293 | – | –
33 | CCN(CC)C(=O)c1ccc2c(c1)Oc1ccccc1C2C1CC2CCC(C1)N2Cc1ncc[nH]1 (stereo not drawn) [Compound 16a, 9-[8-(1H-Imidazol-2-ylmethyl)-8-aza-bicyclo[3.2.1]oct-3-yl]-9H-xanthene-3-carboxylic acid diethylamide] | 114 | 2000 | – | –
34 | CCN(CC)C(=O)c1ccc2c(c1)Oc1c(C)cccc1C2C1CC2CCC(C1)N2 (stereo not drawn) [Compound 6h, 9-(8-Aza-bicyclo[3.2.1]oct-3-yl)-5-methyl-9H-xanthene-3-carboxylic acid diethylamide] | 73 | 4700 | – | –
35 | CC(=O)Nc1ccccc1-c1ccc2c(c1)Oc1ccccc1C2C1CC2CCC(C1)N2Cc1ccccc1 (stereo not drawn) [Compound 16b, N-{2-[9-(8-Benzyl-8-aza-bicyclo[3.2.1]oct-3-yl)-9H-xanthen-3-yl]-phenyl}-acetamide] | > 10000 | > 10000 | – | –
36 | C=CCN1C2CCC1CC(C1c3ccccc3Oc3cc(-c4ccccc4NC(C)=O)ccc31)C2 (stereo not drawn) [Compound 18b, N-{2-[9-(8-Allyl-8-aza-bicyclo[3.2.1]oct-3-yl)-9H-xanthen-3-yl]-phenyl}-acetamide] | – | – | 3200 | 408
